“And” between values parts separate entries of the source, which are not always exact repeats. Equal entries are not always repeated. Toxic doses and inconclusive results are not listed.
Test system: P388 leukemia ip, CD2F1 mice, survival T/C
Assay: NCI In Vivo Anticancer Drug Screen. Data for tumor model P388 Leukemia (intraperitoneal) in CD2F1 (CDF1) mice
Conditions: endpoint: median survival time, higher = longer survival
Outline: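 Mice carrying the transplanted tumor received test compound or vehicle. Survival was recorded in each group, and the value is the treated-group measurement divided by that of the vehicle-treated control group.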

[1] = dose: 50.0 mg/kg/injection, schedule: Q01DX009 (ip), vehicle: saline
[2] = dose: 100.0 mg/kg/injection, schedule: Q01DX009 (ip), vehicle: saline
[3] = dose: 200.0 mg/kg/injection, schedule: Q01DX009 (ip), vehicle: saline
[4] = dose: 100.0 mg/kg/injection, schedule: Q04DX003 (ip), vehicle: water
[5] = dose: 50.0 mg/kg/injection, schedule: Q01DX005 (ip), vehicle: saline
[6] = dose: 100.0 mg/kg/injection, schedule: Q01DX005 (ip), vehicle: saline
[7] = dose: 50.0 mg/kg/injection, schedule: Q01DX005 (ip), vehicle: saline with Tween-80
[8] = dose: 100.0 mg/kg/injection, schedule: Q01DX005 (ip), vehicle: saline with Tween-80
[9] = dose: 50.0 mg/kg/injection, schedule: Q01DX005 (ip), vehicle: Klucel (hydroxypropylcellulose) (HPC)
[10] = dose: 100.0 mg/kg/injection, schedule: Q01DX005 (ip), vehicle: Klucel (hydroxypropylcellulose) (HPC)
[11] = dose: 200.0 mg/kg/injection, schedule: Q01DX005 (ip), vehicle: Klucel (hydroxypropylcellulose) (HPC)
[12] = dose: 12.5 mg/kg/injection, schedule: Q01DX009 (ip), vehicle: saline
[13] = dose: 50.0 mg/kg/injection, schedule: Q01DX009 (ip), vehicle: Klucel (hydroxypropylcellulose) (HPC)
[14] = dose: 100.0 mg/kg/injection, schedule: Q01DX009 (ip), vehicle: Klucel (hydroxypropylcellulose) (HPC)
[15] = dose: 200.0 mg/kg/injection, schedule: Q01DX009 (ip), vehicle: Klucel (hydroxypropylcellulose) (HPC)
[16] = dose: 100.0 mg/kg/injection, schedule: Q04DX003 (ip), vehicle: saline with Tween-80
[17] = dose: 200.0 mg/kg/injection, schedule: Q04DX003 (ip), vehicle: saline with Tween-80

Q: Which results are given for CNC(=O)Oc1ncccc1[N+](=O)[O-]?
A: T/C [1]: 98 % of control and 117 % of control; T/C [2]: 107 % of control and 119 % of control; T/C [3]: 98 % of control and 88 % of control

Q: Which results are given for COc1cccc2c1C(=O)c1c(O)c3c(c(O)c1C2=O)CC(O)(C(C)NCCN(C)C)CC3OC1CC(N)C(O)C(C)O1 (centres undefined)?
A: T/C (dose: 0.63 mg/kg/injection, schedule: Q01DX009 (ip), vehicle: water): 103 % of control; T/C (dose: 1.25 mg/kg/injection, schedule: Q01DX009 (ip), vehicle: water): 106 % of control; T/C (dose: 2.5 mg/kg/injection, schedule: Q01DX009 (ip), vehicle: other): 121 % of control; T/C (dose: 20.0 mg/kg/injection, schedule: Q01DX009 (ip), vehicle: other): 153 % of control; T/C (dose: 40.0 mg/kg/injection, schedule: Q01DX009 (ip), vehicle: other): 157 % of control

Q: COc1cccc2c1C(=O)c1c(O)c3c(c(O)c1C2=O)C[C@@](O)(C(O)O)C[C@@H]3OC1CC(N)C(O)C(C)O1 (some centres undefined) was tested. Which T/C (dose: 2.0 mg/kg/injection, schedule: Q01DX009 (ip), vehicle: water) did it give?
A: 168 % of control

Q: And the T/C (dose: 4.0 mg/kg/injection, schedule: Q01DX009 (ip), vehicle: water)?
A: 154 % of control

Q: What about the T/C [4] of the same compound?
A: 109 % of control and 121 % of control

Q: With Cc1cc(F)nc(F)n1 as the compound, how does the T/C [5] read?
A: 98 % of control

Q: And the T/C [6]?
A: 98 % of control

Q: What does the source list for S?
A: T/C (dose: 100.0 mg/kg/injection, schedule: Q01DX009 (ip), vehicle: saline with Tween-80): 113 % of control; T/C (dose: 200.0 mg/kg/injection, schedule: Q01DX009 (ip), vehicle: saline with Tween-80): 115 % of control; T/C (dose: 400.0 mg/kg/injection, schedule: Q01DX009 (ip), vehicle: saline with Tween-80): 113 % of control

Q: How did the T/C [7] turn out when O=C(O)c1cc2ccc3cccc4ccc(c1)c2c34 was run?
A: 96 % of control

Q: And the T/C [8]?
A: 102 % of control

Q: With C=CCOc1ccccc1N/N=C(\Cl)C(=O)OC as the compound, how does the T/C (dose: 12.5 mg/kg/injection, schedule: Q01DX005 (ip), vehicle: saline with Tween-80) read?
A: 102 % of control

Q: What about the T/C (dose: 25.0 mg/kg/injection, schedule: Q01DX005 (ip), vehicle: saline with Tween-80) of the same compound?
A: 108 % of control

Q: What about the T/C [7] of the same compound?
A: 109 % of control and 114 % of control

Q: For Cn1c2ccccc2c2cnn3cnnc3c21, which T/C (dose: 50.0 mg/kg/injection, schedule: Q01DX001 (ip), vehicle: Klucel (hydroxypropylcellulose) (HPC)) is on record?
A: 91 % of control

Q: And the T/C (dose: 100.0 mg/kg/injection, schedule: Q01DX001 (ip), vehicle: Klucel (hydroxypropylcellulose) (HPC))?
A: 88 % of control

Q: And the T/C (dose: 200.0 mg/kg/injection, schedule: Q01DX001 (ip), vehicle: Klucel (hydroxypropylcellulose) (HPC))?
A: 96 % of control

Q: Which results are given for NNC(=O)CS(=O)(=O)NCc1ccccc1?
A: T/C [9]: 100 % of control; T/C [10]: 99 % of control; T/C [11]: 97 % of control

Q: Which results are given for BrCC[N+]12CC[N+](CCBr)(CC1)C2?
A: T/C (dose: 6.25 mg/kg/injection, schedule: Q01DX009 (ip), vehicle: saline): 114 % of control; T/C [12]: 116 % of control; T/C [1]: 203 % of control and 110 % of control and 121 % of control; T/C (dose: 50.0 mg/kg/injection, schedule: Q04DX003 (ip), vehicle: water): 101 % of control; T/C [2]: 202 % of control and 115 % of control and 118 % of control; T/C [4]: 108 % of control; T/C [3]: 114 % of control; T/C (dose: 400.0 mg/kg/injection, schedule: Q04DX003 (ip), vehicle: water): 173 % of control

Q: Which T/C [13] does the source give for Cc1nn(C(=O)c2ccncc2)c(C)c1N=Nc1cccc(Cl)c1 here?
A: 99 % of control

Q: What about the T/C [14] of the same compound?
A: 100 % of control

Q: And the T/C [15]?
A: 98 % of control

Q: How did the T/C (dose: 6.0 mg/kg/injection, schedule: Q01DX005 (ip), vehicle: Klucel (hydroxypropylcellulose) (HPC)) turn out when O=C(NCCNC(=O)C12CC3CC(CC(C3)C1)C2)C12CC3CC(CC(C3)C1)C2 was run?
A: 88 % of control

Q: What about the T/C (dose: 12.0 mg/kg/injection, schedule: Q01DX005 (ip), vehicle: Klucel (hydroxypropylcellulose) (HPC)) of the same compound?
A: 88 % of control

Q: And the T/C (dose: 100.0 mg/kg/injection, schedule: Q01DX001 (ip), vehicle: saline with Tween-80)?
A: 94 % of control

Q: And the T/C (dose: 200.0 mg/kg/injection, schedule: Q01DX001 (ip), vehicle: saline with Tween-80)?
A: 95 % of control

Q: And the T/C (dose: 400.0 mg/kg/injection, schedule: Q01DX001 (ip), vehicle: saline with Tween-80)?
A: 86 % of control

Q: Which results are given for CC(=O)CC1CC2(CCC1=O)OCCO2 (centres undefined)?
A: T/C (dose: 100.0 mg/kg/injection, schedule: Q01DX009 (ip), vehicle: saline sonified): 100 % of control; T/C (dose: 200.0 mg/kg/injection, schedule: Q01DX009 (ip), vehicle: saline sonified): 100 % of control; T/C (dose: 400.0 mg/kg/injection, schedule: Q01DX009 (ip), vehicle: saline sonified): 100 % of control

Q: Which T/C (dose: 15.0 mg/kg/injection, schedule: Q01DX005 (ip), vehicle: Klucel (hydroxypropylcellulose) (HPC)) does the source give for C=C(C)[C@@H]1CC[C@]2(C(=O)O)CC[C@@]3(C)[C@]4(C)CC[C@@H]5[C@](C)(CC[C@@H](O)[C@@]5(C)C(=O)O)[C@H]4CC[C@]3(C)[C@@H]12 here?
A: 104 % of control

Q: What about the T/C (dose: 30.0 mg/kg/injection, schedule: Q01DX005 (ip), vehicle: Klucel (hydroxypropylcellulose) (HPC)) of the same compound?
A: 117 % of control

Q: And the T/C (dose: 60.0 mg/kg/injection, schedule: Q01DX005 (ip), vehicle: Klucel (hydroxypropylcellulose) (HPC))?
A: 117 % of control

Q: How did the T/C (dose: 100.0 mg/kg/injection, schedule: Q04DX002 (ip), vehicle: Klucel (hydroxypropylcellulose) (HPC)) turn out when COc1ccc(-c2nc3c(=O)[nH]c(=O)n(C)c3nc2-c2ccc(OC)c(OC)c2)cc1OC was run?
A: 97 % of control

Q: What about the T/C (dose: 200.0 mg/kg/injection, schedule: Q04DX002 (ip), vehicle: Klucel (hydroxypropylcellulose) (HPC)) of the same compound?
A: 100 % of control

Q: What about the T/C (dose: 400.0 mg/kg/injection, schedule: Q04DX002 (ip), vehicle: Klucel (hydroxypropylcellulose) (HPC)) of the same compound?
A: 100 % of control

Q: What does the source list for C/C(=N\NS(=O)(=O)c1ccc(C)cc1)c1c(C)noc1C?
A: T/C [13]: 94 % of control; T/C [14]: 99 % of control; T/C [15]: 100 % of control

Q: CN(c1ccccc1)C1CS(=O)(=O)OC2=C1CN(Cc1ccccc1)CC2 (centres undefined) was tested. Which T/C [16] did it give?
A: 99 % of control

Q: And the T/C [17]?
A: 94 % of control

Q: And the T/C (dose: 400.0 mg/kg/injection, schedule: Q04DX003 (ip), vehicle: saline with Tween-80)?
A: 90 % of control

Q: Which results are given for C[S+](C)CCCl?
A: T/C [5]: 100 % of control; T/C [6]: 107 % of control; T/C (dose: 200.0 mg/kg/injection, schedule: Q01DX005 (ip), vehicle: saline): 109 % of control

Q: What does the source list for COC(=O)c1[nH]c(=O)[nH]c(=O)c1N?
A: T/C (dose: 25.0 mg/kg/injection, schedule: Q04DX003 (ip), vehicle: saline with Tween-80): 100 % of control; T/C (dose: 50.0 mg/kg/injection, schedule: Q04DX003 (ip), vehicle: saline with Tween-80): 101 % of control; T/C [16]: 100 % of control; T/C [17]: 102 % of control

Q: Which T/C (dose: 25.0 mg/kg/injection, schedule: Q01DX005 (ip), vehicle: Klucel (hydroxypropylcellulose) (HPC)) does the source give for CCN(CC)CCOC(=O)c1c(C)oc2cc3c(C(=O)OCCN(CC)CC)c(C)oc3cc12 here?
A: 98 % of control

Q: And the T/C [9]?
A: 92 % of control

Q: What about the T/C [10] of the same compound?
A: 94 % of control

Q: What about the T/C [11] of the same compound?
A: 113 % of control

Q: Which T/C [9] does the source give for O=C1/C(=C\c2ccccc2O)Cc2ccccc21 here?
A: 107 % of control

Q: What about the T/C [10] of the same compound?
A: 103 % of control

Q: What about the T/C [11] of the same compound?
A: 91 % of control

Q: With CC(C)(C)C(=N)N as the compound, how does the T/C [12] read?
A: 100 % of control

Q: And the T/C (dose: 25.0 mg/kg/injection, schedule: Q01DX009 (ip), vehicle: saline)?
A: 108 % of control

Q: What about the T/C [1] of the same compound?
A: 102 % of control

Q: Which results are given for CCCC1OCC(O)C(C(O)C(=O)CN(Cc2ccccc2)Cc2ccccc2)O1 (centres undefined)?
A: T/C [7]: 100 % of control; T/C [8]: 98 % of control; T/C (dose: 200.0 mg/kg/injection, schedule: Q01DX005 (ip), vehicle: saline with Tween-80): 98 % of control

Q: For O=C(CNC(=O)Nc1ccc(Cl)c(Cl)c1)N/N=C/c1cccc(F)c1, which T/C (dose: 15.0 mg/kg/injection, schedule: Q01DX005 (ip), vehicle: saline with Tween-80) is on record?
A: 89 % of control

Q: And the T/C (dose: 30.0 mg/kg/injection, schedule: Q01DX005 (ip), vehicle: saline with Tween-80)?
A: 91 % of control

Q: What about the T/C (dose: 60.0 mg/kg/injection, schedule: Q01DX005 (ip), vehicle: saline with Tween-80) of the same compound?
A: 89 % of control

Q: Which T/C (dose: 50.0 mg/kg/injection, schedule: Q01DX009 (ip), vehicle: suspension in saline) does the source give for CN(C)/C=C/c1ccc([N+](=O)[O-])o1 here?
A: 100 % of control

Q: What about the T/C (dose: 100.0 mg/kg/injection, schedule: Q01DX009 (ip), vehicle: suspension in saline) of the same compound?
A: 104 % of control

Q: And the T/C (dose: 200.0 mg/kg/injection, schedule: Q01DX009 (ip), vehicle: suspension in saline)?
A: 118 % of control
